Data from patent publication US20250214896A1, “THIOL / SULFIDE CONTAINING CONCRETE COMPOSITION” (Yarmouk University, priority 2024, published 2025).
Blank lines part the entries; values can stand above or below the compound they belong to.

Key:
physchem = assay: physchem
Text: The reduction attributes of these compounds are subject to pH conditions, specifically, in the alkaline media of the cement mixture where the pH is around 12.

[1] = Dimerization of thiol monomers under oxidizing conditions, evaluated by reverse-phase HPLC; assay type: physicochemical; conditions: about 0.56 M thiol, 10% NaOH, 3.0% hydrogen peroxide
Method: In this example, reference will be made to FIGS. 1 and 2. In this example, the role of thiol group was evaluated by oxidizing the monomers generating a dimer. About 10% by volume aqueous NaOH solution was added to about 0.56 M of mercapto (thiol) series (cysteine, cysteine methyl ester, beta-mercaptoethanol, and dithiothreitol), then a […] step was performed using about 3.0% by volume aqueous solution of hydrogen peroxide. Subsequently, centrifugation was performed at about 3000 rpm for about 5 minutes, then the supernatant was discarded and the pellets were recrystallized followed by rinsing with a few drops of cold water.
The dimerization process was evaluated using reverse-phase HPLC. For the analysis, about 5 μL injection volume was used. The mobile phase consisted of a mixture of acetonitrile and water in a ratio of about 65:35. […] Two distinct peaks were identified at distinct retention times.
The modification of the carboxylic group to a methyl ester increased the acidity of the ammonium protons relative to the thiol protons. […] The inhibitory effect of the ester group on disulfide bond formation was attributed to the presence of the methyl ester group in cysteine methyl ester.

Compound: OCC(O)C(S)CS (stereo not drawn) [3,4-disulfanylbutane-1,2-diol, 3,4-disulfanyl-butane-1,2-diol]
pKa (physchem; pKa of the primary OH): 15.8
pKa (physchem; pKa of the primary SH): 8.93
pKa (physchem; pKa of the secondary OH): 14.3
pKa (physchem; pKa of the secondary SH): 7.98

Compound: COC(=O)[C@@H](N)CS [cysteine methyl ester]
dimer (disulfide) formation on oxidation [1]: unable to form a dimer
pKa (physchem): 6.86
pKa (physchem; pKa of the NH2): 7.93

Compound: OCC(S)CS (stereo not drawn) [2,3-disulfanylpropan-1-ol]
pKa (physchem; pKa of the OH): 15.8
pKa (physchem; pKa of the primary SH): 8.95
pKa (physchem; pKa of the secondary SH): 8.05

The next lines start with the values.

dimer (disulfide) formation on oxidation [1]: successful formation of cysteine dimer
pKa (physchem; pKa of the COOH): 2.35
pKa (physchem; pKa of the NH2): 9.54
pKa (physchem; pKa of the SH): 6.61
Compound: N[C@@H](CS)C(=O)O [cysteine]

pKa of the OH (physchem): 16.25
pKa of the SH (physchem): 8.51
Compound: β-mercapto ethanol [β-mercaptoethanol]

pKa (physchem; pKa of the first SH): 8.12
pKa (physchem; pKa of the second SH): 8.72
Compound: O[C@H](CS)[C@H](O)CS (racemic) [dithiothreitol]
